# Tested on: HLA-A2
# Experiment: HLA-I binding assay with biotin-tagged HLA-A2 monomers
# Design: species or system human
# Settings: in-silico predicted HLA-A2 binders not listed in Fig. 1G
row,Sequence,"HLA-A2 binding in vitro, in words"
1,VIASYPWPI [CVB1–2-3–5-6_2051–2059],did not confirm as binders
2,VMGDALGSV [ZnT8_245–253],binding
3,KLPDALSQM [CVB1_150–158],did not confirm as binders
4,GIIYIIYKL [CVB1–2-3–4-5–6_1502–1510],did not confirm as binders

# From PMC10473604 (bioRxiv, 2023)
